Test results from US20190209548A1, “LINKED DIARYL COMPOUNDS WITH ANTICANCER PROPERTIES AND METHODS OF USING THE SAME” (University of Maryland, College Park, priority 2014, published 2019).
Values joined by “and” are separate entries in the source; they are usually repeats but may differ in a detail not shown here. Equal values may be shown once. Read-outs that look alike come from different tables or passages of the source.

Key:
c-kit1 = assay: 1H-NMR of c-kit1 with ligand; type: binding; settings: ligand 150 μM, DNA 300 μM
Procedure: (§1) NMR measurements for DNA binding of triazene ligands. The procedure was followed as described previously. The ligand concentration was 150 μM, and that of the DNA (c-kit1 or 8 bp AT) was […]. The buffer used was 10 mM potassium phosphate (pH 7.5) containing 137 mM NaCl, 1 mM EDTA, and also contained 10% D2O. The sample was initially heated up to 95° C. for 5 min without the ligand and then cooled down to room temperature in 15 min. Subsequently, the sample was incubated at 4° C. for ˜12 h without the ligand (for G-quadruplex formation). Then, the ligand was added and incubated for 2 h before the NMR measurement (25° C.).
(§2) NMR of DNA/DNA analogue complexes. NMR of spectra (c-kit1 or 8 bp A T) in absence or presence of ligands were obtained following precedent. The sample solution containing c-kit1 (300 μM), D2O (10%, v/v), NaCl (137 mM), EDTA (1 mM) and potassium phosphate buffer (10 mM, pH 7.5) was heated up to 95° C. for 5 min, then cooled down to room temperature, and subsequently incubated for another 12 hours at 4° C. The DMZ analogue (150 μM) was then added and incubated for 2 hours at 4° C. The ^1H NMR spectra were recorded at 25° C., using NaOAc as an internal standard (NaOAc was in a sealed capillary tube that was inserted in the NMR tube). The ^1H NMR spectra was recorded on Bruker Avance III HD 800 MHz spectrometer with a CPQCI cryoprobe.

8 bp AT = assay: 1H-NMR of duplex DNA with ligand; type: binding; settings: ligand 150 μM, DNA 300 μM
Procedure: as §1, §2

F21T = assay: FRET melting assay, F21T; type: binding; settings: dual-labeled DNA 0.2 μM, DMZ analogues 1 μM, potassium cacodylate 60 mM pH 7.2
Procedure: (§3) Fluorescence resonance energy transfer (FRET) assay to determine Tm in absence and presence of ligands. Dual-labelled DNA was diluted from stock (50 μM) to 400 nM in 60 mM potassium cacodylate buffer (pH 7.2) and then annealed by heating at 85° C. for 10 min followed by cooling to room temperature in the heating block. Compounds were diluted from stock (20 mM in DMSO) to 2 μM in 60 mM cacodylate buffer (pH 7.2). 25 μL annealed DNA was added to 96-well plate followed by 25 μL diluted compounds. The sequences of labelled oligonucleotides were as follows: F21T 21-mer (5′-FAM-GGGTTAGGGTTAGGGTTAGGG-TAMRA-3′) (SEQ ID NO:11), c-kit2 26-mer (5′-FAM-CCCGGGCGGGCGCGAGGGAGGGGAGG-TAMRA-3′) (SEQ ID NO:12), k-RAS21R 21-mer (5′-FAM-AGGGCGGTGTGGGAAGAGGGA-TAMRA-3′) (SEQ ID NO:13), c-MYC 22-mer (5′-FAM-TGAGGGTGGGTAGGGTGGGTAA-TAMRA-3′) (SEQ ID NO:14) and duplex 26-mer (5′-FAM-TATAGCTATATTTTTTTATAGCTATA-TAMRA-3′) (SEQ ID NO: 15). Measurements were made in triplicate by using a LightCycler 480 System RT-PCR machine (Roche) and average values were reported. Fluorescence readings were made with excitation at 450-495 nm and detection at 515-545 nm, taken at intervals of 1.2° C./min in the range 25° C. to 95° C.

c-MYC = assay: FRET melting assay, c-MYC; type: binding; settings: dual-labeled DNA 0.2 μM, DMZ analogues 1 μM, potassium cacodylate 60 mM pH 7.2
Procedure: as §3

c-kit2 = assay: FRET melting assay, c-kit2; type: binding; settings: dual-labeled DNA 0.2 μM, DMZ analogues 1 μM, potassium cacodylate 60 mM pH 7.2
Procedure: as §3

k-RAS21R = assay: FRET melting assay, k-RAS21R; type: binding; settings: dual-labeled DNA 0.2 μM, DMZ analogues 1 μM, potassium cacodylate 60 mM pH 7.2
Procedure: as §3

OVCAR-3 = assay: WST-1 IC50 determination, OVCAR-3; type: cell-based, human; settings: 72 hours, WST-1; for IC50: read-out: Anticancer activity IC50 ± SD, OVCAR-3
Procedure: (§4) Cell lines and culturing. The following human cell lines were purchased from ATCC (ATCC, Manassas, Va.): prostate cancer cells (PC-3), triple negative breast cancer cells (MDA-MB-231), ovarian cancer cells (OVCAR-3), normal bone marrow (NBM) and normal fibroblast cells (MCR5A). MDA-MB-231 cells were grown at 37° C. with 5% CO2 atmosphere with DMEM (Life technologies, Carlsbad, Calif.) supplemented with heat-inactivated 10% (V/V) fetal bovine serum. OVCAR-3 and PC-3 cells were grown at 37° C. with 5% CO2 atmosphere with RPMI (Life technologies, Carlsbad, Calif.) supplemented with heat-inactivated 10% (V/V) fetal bovine serum. Cell lines were grown and maintained according to ATCC recommendations.
(§5) IC50 determination. Cell lines were seeded into 96-well plates the afternoon prior to treatment. Cell seeding number was determined by growing cells in log phase growth during drug treatment. Approximately 18 hours later, compounds were semi-serially diluted in dimethyl sulfoxide (DMSO) and then growth medium, and added to cells. Plates were incubated for 72 hours prior to addition of WST-1 (Promega, Madison Wis.). Plates were read after 4 additional hours of incubation at 37° C. using a Bio-Tek Synergy HT plate reader (Bio-Tek, Winooski, Vt.). Data was analyzed, graphed and IC50s generated using GraphPad Prism Software (Graphpad, La Jolla, Calif.).
(§6) IC50 determination: For the determination of IC50 for the azolamide class, the same protocol as described previously was followed.

PC-3 = assay: WST-1 IC50 determination, PC-3; type: cell-based, human; settings: 72 hours, WST-1; for IC50: read-out: Anticancer activity IC50 ± SD, PC-3
Procedure: as §4, §5, §6

MDA-MB-231 = assay: WST-1 IC50 determination, MDA-MB-231; type: cell-based, human; settings: 72 hours, WST-1; for IC50: read-out: Anticancer activity IC50 ± SD, MDA-MB-231
Procedure: as §4, §5, §6

duplex = assay: FRET melting assay, duplex DNA; type: binding; settings: dual-labeled DNA 0.2 μM, DMZ analogues 1 μM, potassium cacodylate 60 mM pH 7.2
Procedure: as §3

c-MYC Pu27 = assay: PCR stop assay, Pu27 template; type: biochemical
Procedure: (§7) PCR Stop Assay. This assay was performed by modifying a previously published protocol.
(§8) To the PCR reaction mixture (25 μL), 1×PCR buffer (New England Biolabs), 5 μM Pu27 and Pu27rev oligomers, various concentrations of ligands (DMZ, TMPyP4, DMZ1, DMZ9 and DMZ13) were added and incubated at 4° C. for 6 h. After that, 1 mM dNTPs, 5 units of Taq DNA polymerase (New England Biolabs) were added and PCR reactions were performed in a thermocycler, with the following conditions: 94° C. for 3 min, followed by 20 repeated cycles each having 94° C. for 30 s, 58° C. for 30 s, and 72° C. for 30 s. After PCR, amplified products were analyzed on 12% polyacrylamide gel with 1×TBE and SYBR Gold stained. This assay was also performed under the same conditions with Pu27-13,14 and Pu27rev.

Pu27-13,14 = assay: PCR stop assay, mutated control template; type: biochemical
Procedure: as §7, §8

SMILES	change of c-kit1 imino proton NMR spectrum (c-kit1)	change of duplex DNA imino proton NMR spectrum (8 bp AT)	ΔTm F21T (F21T) [°C]	ΔTm c-MYC (c-MYC) [°C]	ΔTm c-kit2 (c-kit2) [°C]	ΔTm k-RAS21R (k-RAS21R)	Anticancer activity IC50 ± SD, OVCAR-3 (OVCAR-3)	Anticancer activity IC50 ± SD, PC-3 (PC-3)	Anticancer activity IC50 ± SD, MDA-MB-231 (MDA-MB-231)	ΔTm duplex (duplex)	IC50 (OVCAR-3) [µM]	IC50 (PC-3) [µM]	IC50 (MDA-MB-231) [µM]	polymerization/extension of oligomers Pu27 and Pu27rev (c-MYC Pu27; 100 μM compound)	PCR product with non-G-quadruplex template (Pu27-13,14; 100 μM compound)	IC50 (OVCAR-3; Homo sapiens, OVCAR-3) [µM]	polymerization/extension of oligomers Pu27 and Pu27rev (c-MYC Pu27; 25 μM compound)	PCR product with non-G-quadruplex template (Pu27-13,14; 25 μM compound)
N=C(N)c1ccc(NN=Nc2ccccc2)cc1 [DMZ1]	direct binding	only DMZ (but not Triazene-1) showed considerable changes	4.20 ± 0.00	7.87 ± 0.53	6.40 ± 0.26	5.47 ± 0.93 °C	NE (NE means not effective. Cell viability was the same or greater than 75% of the DMSO control at 20 μM compound concentration.)	NE (NE means not effective. Cell viability was the same or greater than 75% of the DMSO control at 20 μM compound concentration.)	NE (NE means not effective. Cell viability was the same or greater than 75% of the DMSO control at 20 μM compound concentration.)	–	–	–	–	–	–	–	–	–
N=C(N)c1ccc(N=NNc2cccc(C#Cc3ccc(F)cc3)c2)cc1 [DMZ9]	changes in peak positions and shapes	no change was observed	4.20 ± 0.00	8.22 ± 0.45	5.67 ± 0.26	6.58 ± 1.29 °C	–	–	–	NE (NE means not effective binding (ΔTm < 1° C.))	5 ± 0.1	5.3 ± 1.6	5.5 ± 0.1	completely inhibited	amplified PCR product was observed	–	–	–
N=C(N)c1ccc(/N=N/Nc2ccccc2C#Cc2ccc(F)cc2)cc1 [DMZ13]	changes in peak positions and shapes	no change was observed	4.20 ± 0.00	7.15 ± 0.00	5.12 ± 0.26	2.01 ± 0.00 °C	–	–	–	NE (NE means not effective binding (ΔTm < 1° C.))	9.5 ± 2.2	7.4 ± 0.2	6.2 ± 1	completely inhibited	amplified PCR product was observed	–	–	–
N=C(N)c1ccc(/N=N/Nc2ccc(C(=N)N)cc2)cc1 [DMZ, Diminazene aceturate, reference compound]	direct binding	considerable changes in the imino region	10.05 ± 0.52	12.97 ± 0.26	11.70 ± 0.26	18.3 °C and 18.27 ± 0.52 °C	–	NE (NE means not effective. Cell viability was the same or greater than 75% of the DMSO control at 20 μM compound concentration.)	NE (NE means not effective. Cell viability was the same or greater than 75% of the DMSO control at 20 μM compound concentration.)	6.4 °C	–	–	–	–	–	> 25	showed inhibition	amplified PCR product was observed
